Measured values taken from patent publication US11591300B2, “Oxazole containing compounds as activators of IDO1 and AhR” (The Brigham and Women's Hospital, Inc., priority 2017, dated 2023).

Key:
MODE-K cells [1] = experiment: Relative transcript abundance of target genes in MODE-K cells conditioned with compounds
Source text: 4-ethoxymethylene-2-phenyl-2-oxazol-5-one, (referred to as oxazolone, FIG. 1A) has been widely utilized in models of contact hypersensitivity and when applied to the mucosa has been proposed to cause colitis through its properties as a hapten (Gorbachev and Fairchild 2001). However to date there is limited evidence for hapten-specific antibody production or responses following topical oxazolone sensitization or hapten modified autologous proteins or luminal antigens identified at mucosal sites (Singleton et al. 2016, Yanaba et al. 2008, Wirtz et al. 2007). […] It was then determined whether oxazolone could affect the expression of these transcripts in the intestinal epithelium in a cell intrinsic manner by directly stimulating an immortalized intestinal epithelial cell line (IEC) derived from mouse small intestine, MODE-K, with oxazolone.
To test this, a systematic in vitro system was devised to assess transcriptional and CD1d-restricted responses in IECs in response to stimulation with dietary OxC structures, including 2,4,5-trimethyl-2,5-dihydro-1,3-oxazole (referred to as TMO, FIG. 1A) found in coffee, peanuts, meats and utilized as a food additive, which lacks the 2-phenyl ring, 5-ketone, and 4-ethoxymethylene present in oxazolone (Vitzthum et al. 1975, Stoffesima et al. 1968, Lee et al. 1981, Chang et al. 1968, Ho and Hartman 1968).

MODE-K cells [2] = experiment: CD1d-restricted IL-10 production in MODE-K:NKT cell hybridoma co-culture; assay type: cell-based, mouse; details: for effect of the supplement on IEC responses to oxazolone (CD1d-restricted IL-10 production): tryptophan-deficient media, oxazolone stimulation
IECs = experiment: In vitro system to assess transcriptional and CD1d-restricted responses in IECs (FIG. 13 summary); assay type: cell-based
AhR = molecular target: T1, AhR (Homo sapiens, UniProt P35869); details: Wambaugh et al. 2014, Dierickx 2004; cited from earlier work
T1 sequence (P35869 11-848): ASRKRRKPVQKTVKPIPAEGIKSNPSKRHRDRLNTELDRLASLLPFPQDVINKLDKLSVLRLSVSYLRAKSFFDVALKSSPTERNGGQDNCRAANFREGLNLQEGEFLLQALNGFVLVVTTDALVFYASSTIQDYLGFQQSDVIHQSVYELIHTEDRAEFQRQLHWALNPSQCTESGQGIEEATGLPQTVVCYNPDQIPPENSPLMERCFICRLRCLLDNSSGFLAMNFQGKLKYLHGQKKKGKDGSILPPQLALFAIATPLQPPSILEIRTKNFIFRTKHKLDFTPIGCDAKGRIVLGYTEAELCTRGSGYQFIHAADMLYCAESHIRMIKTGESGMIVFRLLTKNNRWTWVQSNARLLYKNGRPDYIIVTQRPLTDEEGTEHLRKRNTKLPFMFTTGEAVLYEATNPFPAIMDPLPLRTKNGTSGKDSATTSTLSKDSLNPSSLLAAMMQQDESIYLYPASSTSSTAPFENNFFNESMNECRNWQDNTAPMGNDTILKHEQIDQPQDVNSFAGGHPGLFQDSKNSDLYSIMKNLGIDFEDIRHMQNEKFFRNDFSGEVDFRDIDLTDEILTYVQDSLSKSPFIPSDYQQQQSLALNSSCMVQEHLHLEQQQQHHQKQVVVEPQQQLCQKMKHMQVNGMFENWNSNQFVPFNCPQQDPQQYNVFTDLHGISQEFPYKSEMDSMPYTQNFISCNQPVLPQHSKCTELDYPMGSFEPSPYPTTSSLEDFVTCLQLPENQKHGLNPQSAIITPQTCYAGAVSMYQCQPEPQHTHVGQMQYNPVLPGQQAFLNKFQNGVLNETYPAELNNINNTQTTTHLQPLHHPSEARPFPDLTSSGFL

[3] = MODE-K cells conditioned with compound, normalized to β-actin
[4] = supplement alone or in conjunction with TMC stimulation

With CC1=NCCC1 [1-MP, 2-methyl-1-pyrroline, reference compound] the Cyp1a1 transcripts (MODE-K cells [1]) was “did not elicit any transcriptional changes” and the Mttp transcripts (MODE-K cells [1]; [3]) was “did not elicit any transcriptional changes”.
With COC(=O)c1csc(C(=O)c2c[nH]c3ccccc23)n1 [ITE, 2-(H-Indol-3-carbonyl)-4-thiazolecarboxylic acid methyl ester, reference compound] the “CD1d-restricted IL-10 production” value (MODE-K cells [2]; MODE-K pre-conditioned with compound, loaded with α-GC, co-culture with 24.7 iNKT hybridoma) was “did not modulate” and the Mttp transcripts (MODE-K cells [1]; [3]) was “did not modulate”.
In the case of C=CC1(C)OC(=O)N(c2cc(Cl)cc(Cl)c2)C1=O (centres unmarked) [vinclozolin], the “transcriptional and CD1d-restricted epithelial responses relative to oxazolone stimulation” value (IECs) is given as “phenocopied”, the AhR activation (AhR) is given as “AhR activator” and the Cyp1a1 transcripts (MODE-K cells [1]) is given as “induced expression of these genes in vitro and in vivo”. For the same compound, the Ido1 transcripts (MODE-K cells [1]; [3]) was “induced expression of these genes in vitro and in vivo”.
In the case of CC1CC(C)C(C)C1 (centres unmarked) [TMC, 1,2,4-trimethyl cyclopentane, reference compound], the Cyp1a1 transcripts (MODE-K cells [1]) is reported as “did not elicit any transcriptional changes” and the Mttp transcripts (MODE-K cells [1]; [3]) is reported as “did not elicit any transcriptional changes”.
With Cn1cc(C[C@@H](N)C(=O)O)c2ccccc21 (racemic) [DL-methyl tryptophan, reference compound] the “effect of the supplement on IEC responses to oxazolone (CD1d-restricted IL-10 production)” value (MODE-K cells [2]) was “did not restore suppression”.
For O=C(O)c1cc(=O)c2ccccc2[nH]1 [kyneurenic acid, reference compound], the “CD1d-restricted IL-10 production” value (MODE-K cells [2]; [4]) was “had no effect”.
For N[C@@H](Cc1c[nH]c2ccccc12)C(=O)O [L-Trp, L-tryptophan, reference compound], the “CD1d-restricted IL-10 production” value (MODE-K cells [2]; [4]) was “had no effect” and the “effect of the supplement on IEC responses to oxazolone (CD1d-restricted IL-10 production)” value (MODE-K cells [2]) was “restored IEC responses to oxazolone”.
